PMC3306999 (Journal of Toxicology, 2012)
Read-outs that look alike come from different tables or passages of the source.

Experiments:
[1] = molecular target: T1, MAO-B (Rattus norvegicus, UniProt P19643); assay: Cerebellar MAO-B activity (radiochemical, 14C-PEA) after perinatal exposure; type: in vivo; conditions: for decrease of cerebellar MAO-B activity: male pups PD21, maternal oral MeHg 1 mg/kg/day GD7-PND7 and/or PCB153 20 mg/kg/day GD10–GD16, vs control 19.26 ± 2.05 nmol/mg protein/h
T1 construct: from tissue; host or cells: rat cerebellum homogenate (dams and PD21 offspring)
Description: (§1) The experimental regimen comprises 0.5 and 1 mg MeHg/kg (body weight) bw/day, administered to rat dams in the drinking water from gestational day (GD)7 to postnatal (PD)7, and/or PCB153 (20 mg/kg/day) dissolved in corn oil, administered to rats from GD10 to GD16.
(§2) The endpoints investigated in rats included total cholinergic MRs and MAO-B activity in cerebellum and total MRs in lymphocytes at weaning (i.e., PD21) both in dams and their offspring.
(§3) At the day of sacrifice, rat brains were rapidly dissected on ice to isolate cerebellum from dams and offspring and stored at −80°C until the analyses were performed. Spleens were also collected.
(ii) MAO-B activity was determined radiochemically as described by Young et al., 1986 [71] using 10 μM ^14C-PEA as the substrate. Specific MAO-B activity was determined in the presence of 100 μM pargyline hydrochloride. The reaction was started by addition of ^14C-PEA to 50 μL of tissue homogenate (0.2 mL final volume) and stopped by addition of 0.1 mL citric acid 2 M after a 15-min incubation at 37°C. Deaminated reaction products were extracted into 3 mL toluene-ethylacetate (1 : 1, v/v) and the radioactivity contained in a 1-mL aliquot of the organic phase was counted in scintillation counter. The enzyme activity was expressed as nmol/mg protein/h.

[2] = type: in vivo, rat; conditions: MeHg 1 mg/kg/day; whole brain
[3] = system: cholinergic muscarinic receptors (MRs); type: in vivo, rat; conditions: for increase of cerebellar MRs density (Bmax): MeHg 1 mg/kg/day GD7-PND7; for effect on cerebellar dissociation constant (Kd) of [3H]QNB: rat, in vivo
[4] = molecular target: cholinergic muscarinic receptors (MRs) in lymphocytes; assay: Spleen lymphocyte MR density and affinity after perinatal exposure; type: in vivo, rat
Description: as §1, §2, §3
(i) Rat lymphocytes were obtained from the spleen of controls and differently treated animals. MR density and affinity in rat lymphocytes were determined as described in [52].

[5] = type: in vivo, rat
Description: as §1
Measurements of total Hg in cerebellum and blood also complemented the molecular studies to correlate neurochemical changes with the internal doses (see methods in [43, 52, 73]).

[6] = system: MAO-B; conditions: St. Lawrence River (Lake St. Pierre, Quebec) fish-eating population; ref Stamler et al. 2006 [68]; cited from earlier work
[7] = 21-day-old, same treatments, mean ± S.D.

T1 sequence (P19643 whole entry): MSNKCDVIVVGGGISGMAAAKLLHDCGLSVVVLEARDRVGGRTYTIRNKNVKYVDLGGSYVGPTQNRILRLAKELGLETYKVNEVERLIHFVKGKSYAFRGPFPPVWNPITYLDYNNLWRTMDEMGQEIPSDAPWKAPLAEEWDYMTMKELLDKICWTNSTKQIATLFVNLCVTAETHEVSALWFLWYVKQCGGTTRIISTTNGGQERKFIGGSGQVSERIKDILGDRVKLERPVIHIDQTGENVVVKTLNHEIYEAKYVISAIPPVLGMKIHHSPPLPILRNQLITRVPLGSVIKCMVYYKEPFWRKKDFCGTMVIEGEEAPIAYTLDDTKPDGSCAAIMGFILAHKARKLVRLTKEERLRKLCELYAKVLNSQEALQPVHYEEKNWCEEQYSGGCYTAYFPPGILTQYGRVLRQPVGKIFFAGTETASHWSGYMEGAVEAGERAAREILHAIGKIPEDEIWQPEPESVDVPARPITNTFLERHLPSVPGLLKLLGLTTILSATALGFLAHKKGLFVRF

Which results are given for [CH3][Hg][Cl] [MeHg, methylmercury]?
effect on MAO-B activity ([1]; lower MeHg dose 0.5 mg/kg/day GD7-PND7, male and female offspring): no effects; decrease of cerebellar MAO-B activity [1]: 35%; brain Hg concentration, mother versus offspring [2]: about five-fold higher; increase of cerebellar MRs density (Bmax) ([3]; dams, PD21): 87%; effect on cerebellar MR density ([3]; lower MeHg dose 0.5 mg/kg/day alone or in combination with PCB153, mother and offspring): did not cause any change; increase of cerebellar MRs density (Bmax) ([3]; male pups PD21): 27%; effect on cerebellar dissociation constant (Kd) of [3H]QNB [3]: did not affect; effect on lymphocyte Kd values ([4]; MeHg 1 mg/kg/day, dams and offspring): absence of any change; increase of lymphocyte MR density (Bmax) ([4]; dams, MeHg 1 mg/kg/day GD7-PND7, vs control 33 ± 4 fmol/million cells): 139%; increase of lymphocyte MR density (Bmax) ([4]; female offspring 21 days old, MeHg 1 mg/kg/day, vs control 37 ± 4 fmol/million cells): 73%; effect on lymphocyte Kd values ([4]; lower MeHg dose 0.5 mg/kg/day): devoid of any effect; effect on lymphocyte MR density ([4]; lower MeHg dose 0.5 mg/kg/day, all groups, day 21 postpartum): did not significantly differ; increase of lymphocyte MR density (Bmax) ([4]; male offspring 21 days old, MeHg 1 mg/kg/day, vs control 41 ± 8 fmol/million cells): 49%; Blood Hg, Dams ([5]; 1 mg MeHg/kg bw/day GD7-PD7 and/or 20 mg PCB153/kg bw/day GD10–GD16, mean ± S.D.): 11.33 ± 2.26 n = 4 μg/ml; Blood Hg, Offspring Female [5, 7]: 1.31 ± 0.40 n = 4 μg/ml; Blood Hg, Offspring Male [5, 7]: 1.35 ± 0.40 n = 4 μg/ml; Brain Hg, Offspring Female [5, 7]: 1.52 ± 0.33 n = 4 μg/g; Brain Hg, Offspring Male [5, 7]: 1.67 ± 0.43 n = 4 μg/g; Hg in rat blood at PD21 ([5]; perinatal 1 mg MeHg/kg/day): 1300 ppb; cerebral Hg levels in weaning rats ([5]; perinatal 1 mg MeHg/kg/day): 1.5–2.8 ppm; blood Hg levels in weaning rats ([5]; perinatal 1 mg MeHg/kg/day, both pup genders): 1.3 ± 0.4 µg/mL; Hg levels in pup blood ([5]; pups, both genders, MeHg 1 mg/kg/day): 1.35 ± 0.4 mg/L; Brain Hg, Dams ([5]; same treatments): 7.53 µg/g; blood-Hg concentrations associated with MeHg-induced reduction in MAO-B activity [6]: above 3.4 μg/L

Which results are given for Clc1cc(Cl)c(-c2cc(Cl)c(Cl)cc2Cl)cc1Cl [PCB153, 2,2′,4,4′,5,5′-hexachlorobiphenyl]?
decrease of cerebellar MAO-B activity [1]: 45%; effect on cerebellar MRs density ([3]; adult and offspring PD21, PCB153 20 mg/kg/day GD10–GD16 alone or with MeHg 1 mg/kg/day): did not modify; effect on cerebellar dissociation constant (Kd) of [3H]QNB [3]: did not affect; effect of PCB153 coexposure on brain Hg concentrations ([5]; MeHg 1 mg/kg/day + PCB153): not affected
